Drawing on paper PMC10739630, “Galidesivir Triphosphate Promotes Stalling of Dengue-2 Virus Polymerase Immediately Prior to Incorporation” (ACS Infectious Diseases, 2023), this text covers IC50 and Km for three compounds.

Common to all, as to type: biochemical
In assay [1] the target is ZIKV NS5 (Zika virus, UniProt Q32ZE1). Kind of assay: SYTO […] fluorescence RdRp assay, A2-primed, poly(U) template. Conditions: read-out: IC50 ^a (μM, mean ± std. dev.).
Assay [2] concerns the target T1, DENV2 NS5 (Dengue virus 2 Thailand/16681/84, UniProt P29990). Described as above. As to conditions: read-out: IC50 ^a (μM, mean ± std. dev.).
The target of assay [3] is T1, DENV2 NS5. Conditions: read-out: KM^app for ATP.

T1 sequence (P29990 2492-3391 limits assumed): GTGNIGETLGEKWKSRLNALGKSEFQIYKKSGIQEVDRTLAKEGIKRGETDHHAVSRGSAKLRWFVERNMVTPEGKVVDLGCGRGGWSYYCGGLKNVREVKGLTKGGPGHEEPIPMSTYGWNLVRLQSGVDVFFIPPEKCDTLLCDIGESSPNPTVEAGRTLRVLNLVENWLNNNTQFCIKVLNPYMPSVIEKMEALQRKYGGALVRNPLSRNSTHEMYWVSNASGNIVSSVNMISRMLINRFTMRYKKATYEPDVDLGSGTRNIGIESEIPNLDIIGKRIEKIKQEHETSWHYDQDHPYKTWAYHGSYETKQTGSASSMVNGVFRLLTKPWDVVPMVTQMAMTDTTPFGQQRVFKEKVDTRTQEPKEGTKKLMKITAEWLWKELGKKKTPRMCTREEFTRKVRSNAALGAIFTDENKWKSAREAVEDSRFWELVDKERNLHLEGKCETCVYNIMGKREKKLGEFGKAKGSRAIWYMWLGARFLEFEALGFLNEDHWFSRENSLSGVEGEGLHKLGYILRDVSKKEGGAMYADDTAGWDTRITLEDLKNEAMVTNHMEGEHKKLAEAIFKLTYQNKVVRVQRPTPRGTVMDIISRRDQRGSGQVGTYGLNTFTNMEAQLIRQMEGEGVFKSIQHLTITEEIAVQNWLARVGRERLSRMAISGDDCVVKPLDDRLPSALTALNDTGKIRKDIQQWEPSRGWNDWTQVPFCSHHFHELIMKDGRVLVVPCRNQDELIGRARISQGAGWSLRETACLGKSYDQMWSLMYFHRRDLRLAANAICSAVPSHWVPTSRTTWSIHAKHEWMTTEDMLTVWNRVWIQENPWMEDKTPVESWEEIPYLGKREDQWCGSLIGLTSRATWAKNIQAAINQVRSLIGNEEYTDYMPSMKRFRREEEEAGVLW
ZIKV NS5, sequence (Q32ZE1 2517-3419): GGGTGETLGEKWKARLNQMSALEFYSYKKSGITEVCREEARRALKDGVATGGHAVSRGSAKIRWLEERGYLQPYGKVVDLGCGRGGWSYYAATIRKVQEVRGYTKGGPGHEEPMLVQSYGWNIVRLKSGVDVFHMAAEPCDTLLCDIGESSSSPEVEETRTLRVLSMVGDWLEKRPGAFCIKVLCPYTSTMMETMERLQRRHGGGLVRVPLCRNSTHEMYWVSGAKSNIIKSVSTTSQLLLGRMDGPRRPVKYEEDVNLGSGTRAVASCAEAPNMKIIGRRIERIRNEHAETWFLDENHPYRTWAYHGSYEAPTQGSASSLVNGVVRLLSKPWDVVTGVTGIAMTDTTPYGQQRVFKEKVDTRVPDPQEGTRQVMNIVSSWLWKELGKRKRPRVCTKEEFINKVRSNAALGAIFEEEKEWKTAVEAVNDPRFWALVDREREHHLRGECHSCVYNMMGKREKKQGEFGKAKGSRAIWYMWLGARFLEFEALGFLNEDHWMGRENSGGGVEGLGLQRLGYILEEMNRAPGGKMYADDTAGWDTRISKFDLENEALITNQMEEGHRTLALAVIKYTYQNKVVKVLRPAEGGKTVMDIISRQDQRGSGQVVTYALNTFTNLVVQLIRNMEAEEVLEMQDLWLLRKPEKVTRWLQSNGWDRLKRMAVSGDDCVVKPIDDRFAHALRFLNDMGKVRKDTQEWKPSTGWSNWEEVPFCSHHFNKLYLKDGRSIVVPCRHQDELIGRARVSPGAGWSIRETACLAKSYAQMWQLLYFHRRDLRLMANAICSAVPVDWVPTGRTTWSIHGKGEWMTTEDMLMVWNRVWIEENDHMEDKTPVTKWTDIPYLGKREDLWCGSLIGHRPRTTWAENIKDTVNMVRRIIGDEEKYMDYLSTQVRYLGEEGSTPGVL

Take `Nc1ncnc2c1ncn2[C@@H]1O[C@H](COP(=O)(O)OP(=O)(O)OP(=O)(O)O)C[C@H]1O` [3′-dATP, reference compound]: the IC50 was determined as 0.06 ± 0.02 µM in assay [1] and 0.48 ± 0.05 µM in assay [2].

For the compound `Nc1ncnc2c1ncn2[C@@H]1O[C@H](COP(=O)(O)OP(=O)(O)OP(=O)(O)O)[C@@H](O)[C@H]1O` [ATP], the Km in assay [3] is 430 µM.

For `Nc1ncnc2c([C@@H]3N[C@H](COP(=O)(O)OP(=O)(O)OP(=O)(O)O)[C@@H](O)[C@H]3O)c[nH]c12` [Gal-TP], the IC50 in assay [1] came out at 47 ± 5 µM; in assay [2], 42 ± 12 µM.
